According to patent US10392383B2, “3-(1H-benzo[d]imidazol-2-yl)-1H-pyrazolo[4,3-b]pyridines and therapeutic uses thereof” (Samumed, LLC, priority 2015, dated 2019):

Key:
[1] = tested on: primary human mesenchymal stem cells (hMSCs); assay: Induction of chondrogenesis in human mesenchymal stem cells (nodule staining with Rhodamine B / Nile Red); assay type: cell-based; settings: for Emax: TGF-β3 (10 ng/mL) as positive control, read-out: Max. Activity as % TGF-β3 activity; for EC50: concentration required to induce 50% levels of chondrogenesis vs TGF-β3, read-out: Conc (nM) of 50% TGF-β3 activity
Description: Representative compounds were screened using primary human mesenchymal stem cells (hMSCs) to determine their ability to induce chondrogenesis (process by which cartilage is developed).
Human Mesenchymal Stem Cell Culture: Primary human mesenchymal stem cells (hMSCs) were purchased from Lonza (Walkersville, Md.) and expanded in Mesenchymal Stem Cell Growth Media (Lonza). Cells between passage 3 and 6 were used for the experiments.
Compound Screening: Each compound was dissolved in DMSO as a 10 mM stock and used to prepare compound source plates. For the 96 well assay, serial dilution (1:3, 6-point dose-response curves from 2700 nM to 10 nM) and compound transfer was performed using the ECHO 550 (Labcyte, Sunnyvale, Calif.) into 96-well clear bottom assay plates (Greiner Bio-One) with appropriate DMSO backfill for a final DMSO concentration of 0.03%. hMSCs were plated at 20,000 cells/well in 250 μL/well Incomplete Chondrogenic Induction Medium (Lonza; DMEM, dexamethasone, ascorbate, insulin-transferrin-selenium [ITS supplement], gentamycin-amphotericin [GA-1000], sodium pyruvate, proline and L-glutamine). TGF-β3 (10 ng/mL) was used as a positive control for differentiation while negative control wells were treated with 75 nL DMSO for normalization and calculating EC50 values. For the 384 well assay, serial dilution (1:3, 8-point dose-response curves from 5000 nM to 2.2 nM) and compound transfer was performed using the ECHO 550 (Labcyte, Sunnyvale, Calif.) into 384-well clear bottom assay plates (Greiner Bio-One) with appropriate DMSO backfill for a final DMSO concentration of 0.03%. hMSCs were plated at 8,000 cells/well in 80 μL/well Incomplete Chondrogenic Induction Medium (Lonza; DMEM, dexamethasone, ascorbate, insulin-transferrin-selenium [ITS supplement], gentamycin-amphotericin [GA-1000], sodium pyruvate, proline and L-glutamine). TGF-β3 (10 ng/mL) was used as a positive control for differentiation while negative control wells were treated with 25 nL DMSO for normalization and calculating EC50 values. Cells were incubated at 37° C. and 5% CO2 for 6 days. To image chondrogenic nodules, the cells were fixed using 4% formaldehyde (Electron Microscopy Sciences), and stained with 2 μg/mL Rhodamine B (Sigma-Aldrich) and 20 μM Nile Red (Sigma-Aldrich) [Johnson K., et. al, A Stem Cell-Based Approach to Cartilage Repair, Science, (2012), 336(6082), 717-721]. The nodules imaged (25 images per well for 96 well plates and 9 images per well for 384 well plates at 10× magnification) by excitation at 531 nm and emission at 625 nm and quantified using the CellInsight CX5 (Thermo Scientific). Area of nodules in each well was normalized to the average of 3 DMSO treated wells on the same plate using Excel (Microsoft Inc.). The normalized averages (fold change over DMSO) of 2 or 3 replicate wells for each compound concentration were calculated. Due to solubility limitations of some of the compounds, curve fitting was incomplete leading to inaccurate EC50 determinations.
Using TGF-β3 as a positive control, the concentration of representative compounds required to induce 50% levels of chondrogenesis is reported. In addition, the maximum activity of each compound and the respective dose that each compound reached maximum chondrogenesis activity is reported.

[2] = tested on: IL-6 (THP-1 cells); assay: IL-6 inhibition in LPS-stimulated THP-1 monocytes (HTRF); assay type: cell-based; settings: Homo sapiens, IL-6 HTRF; for EC50: 500 ng/mL LPS, Table 6; for inhibition at 10 µM: LPS, Table 6, read-out: percent inhibition at 10 μM (given in parentheses for EC50 >10 μM)
Procedure, shortened: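 THP-1 cells in 1% FBS pre-incubated 2 h with compound (10-point 1:3 series from 10 μM, 0.1% DMSO), then stimulated with 500 ng/mL LPS for 22 h at 37 °C. IL-6 measured by HTRF 665/620 ratio, normalized to DMSO; EC50 by four-parameter fit, or % inhibition at 10 μM when EC50 >10 μM.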

CCC(=O)Nc1cncc(-c2ccc3[nH]nc(-c4nc5c(-c6cccc(F)c6)cccc5[nH]4)c3n2)c1 [Compound 1, N-(5-(3-(4-(3-Fluorophenyl)-1H-benzo[d]imidazol-2-yl)-1H-pyrazolo[4,3-b]pyridin-5-yl)pyridin-3-yl)propionamide] showed an Emax [1] of 99%, an EC50 [2] of over 10 µM and an inhibition at 10 µM [2] of 49.2%.
In the case of CC(C)CC(=O)Nc1cncc(-c2ccc3[nH]nc(-c4nc5c(-c6cccc(F)c6)cccc5[nH]4)c3n2)c1 [Compound 2, N-(5-(3-(4-(3-Fluorophenyl)-1H-benzo[d]imidazol-2-yl)-1H-pyrazolo[4,3-b]pyridin-5-yl)pyridin-3-yl)-3-methylbutanamide], the Emax [1] is reported as 57%, the EC50 [1] is reported as 21 nM and the EC50 [2] is reported as 6.69 µM.
CN(C)c1cncc(-c2ccc3[nH]nc(-c4nc5c(-c6cccc(F)c6)cccc5[nH]4)c3n2)c1 [Compound 7, 5-(3-(4-(3-fluorophenyl)-1H-benzo[d]imidazol-2-yl)-1H-pyrazolo[4,3-b]pyridin-5-yl)-N,N-dimethylpyridin-3-amine] gave an Emax [1] of 53%, an EC50 [1] of 30 nM and an EC50 [2] of 9.5 µM.
With CN(C)Cc1cncc(-c2ccc3[nH]nc(-c4nc5c(-c6cccc(F)c6)cccc5[nH]4)c3n2)c1 [Compound 13, 1-(5-(3-(4-(3-Fluorophenyl)-1H-benzo[d]imidazol-2-yl)-1H-pyrazolo[4,3-b]pyridin-5-yl)pyridin-3-yl)-N,N-dimethylmethanamine] the Emax [1] was 85%, the EC50 [1] was 30 nM and the EC50 [2] was 1.37 µM.
Fc1cccc(-c2cccc3[nH]c(-c4n[nH]c5ccc(-c6ccncc6)nc45)nc23)c1 [Compound 18, 3-(4-(3-Fluorophenyl)-1H-benzo[d]imidazol-2-yl)-5-(pyridin-4-yl)-1H-pyrazolo[4,3-b]pyridine] gave an Emax [1] of 39% and an EC50 [2] of 3.62 µM.
With Cc1cn(-c2cccc3[nH]c(-c4n[nH]c5ccc(-c6cncc(NC(=O)CC(C)C)c6)nc45)nc23)cn1 [Compound 198, 3-Methyl-N-(5-(3-(4-(4-methyl-1H-imidazol-1-yl)-1H-benzo[d]imidazol-2-yl)-1H-pyrazolo[4,3-b]pyridin-5-yl)pyridin-3-yl)butanamide] the Emax [1] was 44%, the EC50 [2] was over 10 µM and the inhibition at 10 µM [2] was 30.8%.
Cc1cn(-c2cccc3[nH]c(-c4n[nH]c5ccc(-c6cncc(NC(=O)C(C)(C)C)c6)nc45)nc23)cn1 [Compound 204, N-(5-(3-(4-(4-Methyl-1H-imidazol-1-yl)-1H-benzo[d]imidazol-2-yl)-1H-pyrazolo[4,3-b]pyridin-5-yl)pyridin-3-yl)pivalamide] gave an Emax [1] of 78%, an EC50 [1] of 10 nM and an EC50 [2] of 6.38 µM.
In the case of Cc1cn(-c2cccc3[nH]c(-c4n[nH]c5ccc(-c6cncc(CN7CCCC7)c6)nc45)nc23)cn1 [Compound 210, 3-(4-(4-Methyl-1H-imidazol-1-yl)-1H-benzo[d]imidazol-2-yl)-5-(5-(pyrrolidin-1-ylmethyl)pyridin-3-yl)-1H-pyrazolo[4,3-b]pyridine], the Emax [1] is reported as 193%, the EC50 [1] is reported as 7 nM and the EC50 [2] is reported as over 10 µM. It also gave an inhibition at 10 µM [2] of 33.2%.
Cc1cn(-c2cccc3[nH]c(-c4n[nH]c5ccc(-c6cncc(NC(=O)C7CCC7)c6)nc45)nc23)cn1 [Compound 217, N-(5-(3-(4-(4-Methyl-1H-imidazol-1-yl)-1H-benzo[d]imidazol-2-yl)-1H-pyrazolo[4,3-b]pyridin-5-yl)pyridin-3-yl)cyclobutanecarboxamide] was tested, and the Emax [1] was 32%, the EC50 [2] was over 10 µM and the inhibition at 10 µM [2] was 51.9%.
c1cncc(-c2ccc3[nH]nc(-c4nc5ccccc5[nH]4)c3n2)c1 [Compound 256, 3-(1H-Benzo[d]imidazol-2-yl)-5-(pyridin-3-yl)-1H-pyrazolo[4,3-b]pyridine] showed an Emax [1] of 85%, an EC50 [1] of 10 nM and an EC50 [2] of over 10 µM. For the same compound, the inhibition at 10 µM [2] was 0%.
With CN(C)CCNc1cc(F)cc(-c2cccc3[nH]c(-c4n[nH]c5ccc(-c6ccccn6)nc45)nc23)c1 [Compound 476, N^1-(3-Fluoro-5-(2-(5-(pyridin-2-yl)-1H-pyrazolo[4,3-b]pyridin-3-yl)-1H-benzo[d]imidazol-4-yl)phenyl)-N^2,N^2-dimethylethane-1,2diamine] the EC50 [2] was 8.75 µM.
With CS(=O)(=O)NCc1cc(F)cc(-c2cccc3[nH]c(-c4n[nH]c5ccc(-c6cncc(CNCc7ccccc7)c6)nc45)nc23)c1 [Compound 500, N-(3-(2-(5-(5-((Benzylamino)methyl)pyridin-3-yl)-1H-pyrazolo[4,3-b]pyridin-3-yl)-1H-benzo[d]imidazol-4-yl)-5-fluorobenzyl)methanesulfonamide] the EC50 [2] was 1.34 µM.
CS(=O)(=O)NCc1cc(F)cc(-c2cccc3[nH]c(-c4n[nH]c5ccc(-c6cncnc6)nc45)nc23)c1 [Compound 503, N-(3-Fluoro-5-(2-(5-(pyrimidin-5-yl)-1H-pyrazolo[4,3-b]pyridin-3-yl)-1H-benzo[d]imidazol-4-yl)benzyl)methanesulfonamide] showed an EC50 [2] of 3.71 µM.
Work on Fc1cccc(-c2cccc3[nH]c(-c4n[nH]c5ccc(-c6cncc(OCCN7CCCC7)c6)nc45)nc23)c1 [Compound 514, 3-(4-(3-Fluorophenyl)-1H-benzo[d]imidazol-2-yl)-5-(5-(2-(pyrrolidin-1-yl)ethoxy)pyridin-3-yl)-1H-pyrazolo[4,3-b]pyridine] yielded an EC50 [2] of 0.727 µM.
In the case of c1cncc(-c2cccc3[nH]c(-c4n[nH]c5ccc(-c6cncc(OC7CCCCC7)c6)nc45)nc23)c1 [Compound 559, 5-(5-(Cyclohexyloxy)pyridin-3-yl)-3-(4-(pyridin-3-yl)-1H-benzo[d]imidazol-2-yl)-1H-pyrazolo[4,3-b]pyridine], the EC50 [2] is reported as 0.0028 µM.
Oc1cncc(-c2ccc3[nH]nc(-c4nc5c(-c6cccnc6)cccc5[nH]4)c3n2)c1 [Compound 565, 5-(3-(4-(Pyridin-3-yl)-1H-benzo[d]imidazol-2-yl)-1H-pyrazolo[4,3-b]pyridin-5-yl)pyridin-3-ol] was tested, and the EC50 [2] was 0.232 µM.
c1cc(N2CCCCC2)c2nc(-c3n[nH]c4ccc(-c5cncc(OCCN6CCCC6)c5)nc34)[nH]c2c1 [Compound 610, 3-(4-(Piperidin-1-yl)-1H-benzo[d]imidazol-2-yl)-5-(5-(2-(pyrrolidin-1-yl)ethoxy)pyridin-3-yl)-1H-pyrazolo[4,3-b]pyridine] was tested, and the EC50 [2] was 0.695 µM.
With COc1cncc(-c2ccc3[nH]nc(-c4nc5c(N6CCCCC6)cccc5[nH]4)c3n2)c1 [Compound 612, 5-(5-Methoxypyridin-3-yl)-3-(4-(piperidin-1-yl)-1H-benzo[d]imidazol-2-yl)-1H-pyrazolo[4,3-b]pyridine] the EC50 [2] was over 10 µM and the inhibition at 10 µM [2] was 34.2%.
Oc1cncc(-c2ccc3[nH]nc(-c4nc5c(N6CCCCC6)cccc5[nH]4)c3n2)c1 [Compound 613, 5-(3-(4-(Piperidin-1-yl)-1H-benzo[d]imidazol-2-yl)-1H-pyrazolo[4,3-b]pyridin-5-yl)pyridin-3-ol] was tested, and the EC50 [2] was 6.77 µM.
CN1CCN(c2cccc3[nH]c(-c4n[nH]c5ccc(-c6cncc(OC7CCCCC7)c6)nc45)nc23)CC1 [Compound 639, 5-(5-(Cyclohexyloxy)pyridin-3-yl)-3-(4-(4-methylpiperazin-1-yl)-1H-benzo [d]imidazol-2-yl)-1H-pyrazolo[4,3-b]pyridine] was tested, and the EC50 [2] was 4.9 µM.
Compound CN1CCN(c2cccc3[nH]c(-c4n[nH]c5ccc(-c6cncc(OCc7ccccc7)c6)nc45)nc23)CC1 [Compound 646, 5-(5-(Benzyloxy)pyridin-3-yl)-3-(4-(4-methylpiperazin-1-yl)-1H-benzo[d]imidazol-2-yl)-1H-pyrazolo[4,3-b]pyridine] has an EC50 [2] of 3.34 µM.
